From ChEMBL document CHEMBL4177750, “Imidazopyrazinones (IPYs): Non-Quinolone Bacterial Topoisomerase Inhibitors Showing Partial Cross-Resistance with Quinolones” (J Med Chem, 2018)
Converted amounts (≈) assume the structure as drawn. The source made the active and inactive calls. The rule behind the calls is not given here.

Legend:
Escherichia coli [1] = assay: Resistance factor, ratio of MIC for 4 times MIC-treated tolC-deficient Escherichia coli ATCC 25922 harboring DR76_3503 Q47H mutant to MIC for tolC-deficient Escherichia coli ATCC 25922; format: functional
Klebsiella pneumoniae [2] = assay: Antibacterial activity against wild type Klebsiella pneumoniae 1161486 after 20 to 22 hrs; format: functional
[3] = Drug metabolism in rat liver microsomes at 5 uM after 20 mins in presence of NADPH; format: ADME, microsome; conditions: read-out: Drug metabolism
Pseudomonas aeruginosa [4] = assay: Antibacterial activity against Pseudomonas aeruginosa PAO1 after 20 to 22 hrs; format: functional
Klebsiella pneumoniae [5] = assay: Resistance factor, ratio of MIC for Klebsiella pneumoniae 1161486 harboring GyrA S83I/ParC S80I double mutant to MIC for wild type Klebsiella pneumoniae 1161486; format: functional
Klebsiella pneumoniae [6] = assay: Antibacterial activity against Klebsiella pneumoniae 1161486 harboring GyrA S83F/D87V/ParC S80I triple mutant after 20 to 22 hrs; format: functional
Staphylococcus aureus [7] = assay: Antibacterial activity against Staphylococcus aureus RN4220 harboring GyrA D83N mutant after 20 to 22 hrs; format: functional
Staphylococcus aureus [8] = assay: Antibacterial activity against Staphylococcus aureus RN4220 harboring GyrA D83N/ParC D79N double mutant after 20 to 22 hrs; format: functional
Pseudomonas aeruginosa [9] = assay: Antibacterial activity against Pseudomonas aeruginosa PAO750 harboring mexAB-oprM/mexCD-oprJ/mexEF-oprN/mexXY/opmH/mexJK/pscC deletion mutant after 20 to 22 hrs; format: functional
Cytochrome P450 3A4 [10] = target: T1, Cytochrome P450 3A4 (Homo sapiens, UniProt P08684); assay: Inhibition of CYP3A4-mediated midazolam metabolism in human liver microsomes
[11] = Metabolic stability in mouse plasma at 1 uM after 4 hrs; format: ADME, cell-free; conditions: read-out: Stability
Escherichia coli [12] = assay: Antibacterial activity against hyperpermeable Escherichia coli D22 harboring LpxC mutant after 20 to 22 hrs
Escherichia coli [13] = assay: Antibacterial activity against tolC-deficient Escherichia coli K-12 MG1655 after 20 to 22 hrs; format: functional; conditions: K-12 substr. MG1655
Staphylococcus aureus [14] = assay: Resistance factor, ratio of MIC for Staphylococcus aureus RN4220 harboring GyrA D83N/ParC D79N double mutant to MIC for wild type Staphylococcus aureus RN4220; format: functional
Staphylococcus aureus [15] = assay: Antibacterial activity against Staphylococcus aureus RN4220 harboring ParC S80F/GyrA S84L double mutant after 20 to 22 hrs; format: functional
Staphylococcus aureus [16] = assay: Resistance factor, ratio of MIC for Staphylococcus aureus RN4220 harboring GyrB D437N mutant to MIC for wild type Staphylococcus aureus RN4220; format: functional
Staphylococcus aureus [17] = assay: Antibacterial activity against Staphylococcus aureus RN4220 harboring GyrB D437N mutant after 20 to 22 hrs; format: functional
Staphylococcus aureus [18] = assay: Antibacterial activity against methicillin-resistant Staphylococcus aureus ATCC 33592 after 20 to 22 hrs in presence of 50% calf fetal serum; format: functional, organism-based
[19] = target: Voltage-gated inwardly rectifying potassium channel KCNH2 (Homo sapiens, UniProt Q12809); assay: Inhibition of human ERG transfected in CHO cells by patch clamp method
Staphylococcus aureus [20] = assay: Antibacterial activity against methicillin-resistant Staphylococcus aureus ATCC 33592 after 20 to 22 hrs; format: functional
Escherichia coli [21] = assay: Resistance factor, ratio of MIC for Escherichia coli K-12 MG1655 harboring GyrA S83L/D87N/ParC S80I triple mutant to MIC for wild type Escherichia coli K-12 MG1655; format: functional, K-12 substr. MG1655
Klebsiella pneumoniae [22] = assay: Antibacterial activity against Klebsiella pneumoniae 1161486 after 20 to 22 hrs; format: functional
Staphylococcus aureus [23] = assay: Antibacterial activity against Staphylococcus aureus RN4220 harboring ParC S80F mutant after 20 to 22 hrs; format: functional
DNA gyrase = DNA gyrase (Escherichia coli, UniProt P0AES4+P0AES6)
Description: Inhibition of Escherichia coli DNA gyrase A2B2 using relaxed pNO1 as substrate

Escherichia coli [24] = assay: Antibacterial activity against Escherichia coli K-12 MG1655 harboring GyrA S83L/D87N/ParC S80I triple mutant after 20 to 22 hrs; format: functional; conditions: K-12 substr. MG1655
L5178Y [25] = assay: Genotoxicity in mouse L5178Y cells after 3 hrs in presence of S9 fraction by micronucleus test; format: toxicity, cell-based; conditions: s9, 3 h
Escherichia coli [26] = assay: Antibacterial activity against tolC-deficient fluoroquinolones-resistant Escherichia coli W4753 clinical isolate harboring DNA gyrase S83L/D87N/ParC S80I/ParE S458A mutant after 20 to 22 hrs
Staphylococcus aureus [27] = assay: Resistance factor, ratio of MIC for Staphylococcus aureus RN4220 harboring ParC S80F mutant to MIC for wild type Staphylococcus aureus RN4220; format: functional
Klebsiella pneumoniae [28] = assay: Antibacterial activity against Klebsiella pneumoniae 1161486 harboring GyrA S83I mutant after 20 to 22 hrs; format: functional
[29] = Thermodynamic aqueous solubility of the compound at pH 7.4; conditions: aqueous solution
Cytochrome P450 3A4 [30] = target: T1, Cytochrome P450 3A4; assay: Inhibition of CYP3A4-mediated testosterone metabolism in human liver microsomes
Klebsiella pneumoniae [31] = assay: Antibacterial activity against Klebsiella pneumoniae 1161486 harboring GyrA S83I/ParC S80I double mutant after 20 to 22 hrs; format: functional
Klebsiella pneumoniae [32] = assay: Resistance factor, ratio of MIC for Klebsiella pneumoniae 1161486 harboring GyrA S83F/D87V/ParC S80I triple mutant to MIC for wild type Klebsiella pneumoniae 1161486; format: functional
Escherichia coli [33] = assay: Inhibition of DNA synthesis in tolC-deficient Escherichia coli K-12 MG1655 at MIC to 8 times MIC after 5 to 120 mins by [methyl-3H]-thymidine incorporation assay; format: functional, organism-based; conditions: K-12 substr. MG1655
L5178Y [34] = assay: Genotoxicity in mouse L5178Y cells after 23 hrs in absence of S9 fraction by micronucleus test; format: toxicity, cell-based
Klebsiella pneumoniae [35] = assay: Antibacterial activity against tolC-deficient Klebsiella pneumoniae 1161486a after 20 to 22 hrs; format: functional
Staphylococcus aureus [36] = assay: Antibacterial activity against wild type Staphylococcus aureus RN4220 after 20 to 22 hrs; format: functional
Acinetobacter baumannii [37] = assay: Antibacterial activity against Acinetobacter baumannii BM4652 harboring adeABC/adeIJK deletion mutant after 20 to 22 hrs; format: functional
Escherichia coli [38] = assay: Antibacterial activity against Escherichia coli K-12 MG1655 after 20 to 22 hrs; conditions: K-12 substr. MG1655
Acinetobacter baumannii [39] = assay: Antibacterial activity against Acinetobacter baumannii BM4454 after 20 to 22 hrs; format: functional
[40] = Cytotoxicity against human HepG2 cells assessed as decrease in cell viability after 40 hrs by Celltiter Glo assay
Staphylococcus aureus [41] = assay: Resistance factor, ratio of MIC for Staphylococcus aureus RN4220 harboring GyrA D83N mutant to MIC for wild type Staphylococcus aureus RN4220; format: functional
[42] = Metabolic stability in rat plasma at 1 uM after 4 hrs; format: ADME, cell-free; conditions: read-out: Stability
Staphylococcus aureus [43] = assay: Antibacterial activity against methicillin-resistant Staphylococcus aureus ATCC 33592 after 20 to 22 hrs in presence of 50% mouse serum; format: functional, organism-based
[44] = Drug metabolism in mouse liver microsomes at 5 uM after 20 mins in presence of NADPH; format: ADME, microsome; conditions: read-out: Drug metabolism
[45] = Apparent permeability across human Caco2 cells; conditions: Caco-2
Staphylococcus aureus [46] = assay: Resistance factor, ratio of MIC for Staphylococcus aureus RN4220 harboring ParC S80F/GyrA S84L double mutant to MIC for wild type Staphylococcus aureus RN4220; format: functional
Escherichia coli [47] = assay: Resistance factor, ratio of MIC for 4 times MIC-treated tolC-deficient Escherichia coli ATCC 25922 to MIC for tolC-deficient Escherichia coli ATCC 25922; format: functional
Escherichia coli [48] = assay: Antibacterial activity against tolC-deficient fluoroquinolones-sensitive Escherichia coli JC7623 clinical isolate harboring wild type DNA gyrase after 20 to 22 hrs
Escherichia coli [49] = assay: Antibacterial activity against ESBL producing Escherichia coli ATCC 35218 after 20 to 22 hrs; format: functional
[50] = Drug metabolism in human liver microsomes at 5 uM after 20 mins in presence of NADPH; format: ADME, microsome; conditions: read-out: Drug metabolism
Klebsiella pneumoniae [51] = assay: Resistance factor, ratio of MIC for Klebsiella pneumoniae 1161486 harboring GyrA S83I mutant to MIC for wild type Klebsiella pneumoniae 1161486; format: functional

T1 sequence (P08684 whole entry): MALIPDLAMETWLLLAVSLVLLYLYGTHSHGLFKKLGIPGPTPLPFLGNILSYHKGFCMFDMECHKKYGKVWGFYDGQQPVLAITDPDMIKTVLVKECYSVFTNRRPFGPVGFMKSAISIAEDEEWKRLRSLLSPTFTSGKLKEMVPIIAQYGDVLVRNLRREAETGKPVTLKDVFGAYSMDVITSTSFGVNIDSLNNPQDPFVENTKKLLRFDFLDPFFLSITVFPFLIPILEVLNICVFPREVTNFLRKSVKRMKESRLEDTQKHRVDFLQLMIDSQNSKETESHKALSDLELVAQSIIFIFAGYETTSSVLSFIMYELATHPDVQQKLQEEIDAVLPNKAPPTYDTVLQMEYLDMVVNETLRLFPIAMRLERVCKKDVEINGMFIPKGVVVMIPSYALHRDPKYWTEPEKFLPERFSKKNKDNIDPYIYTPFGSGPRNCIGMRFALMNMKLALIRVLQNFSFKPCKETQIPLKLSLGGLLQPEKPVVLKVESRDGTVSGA
Chain of Voltage-gated inwardly rectifying potassium channel KCNH2 (Q12809 whole entry): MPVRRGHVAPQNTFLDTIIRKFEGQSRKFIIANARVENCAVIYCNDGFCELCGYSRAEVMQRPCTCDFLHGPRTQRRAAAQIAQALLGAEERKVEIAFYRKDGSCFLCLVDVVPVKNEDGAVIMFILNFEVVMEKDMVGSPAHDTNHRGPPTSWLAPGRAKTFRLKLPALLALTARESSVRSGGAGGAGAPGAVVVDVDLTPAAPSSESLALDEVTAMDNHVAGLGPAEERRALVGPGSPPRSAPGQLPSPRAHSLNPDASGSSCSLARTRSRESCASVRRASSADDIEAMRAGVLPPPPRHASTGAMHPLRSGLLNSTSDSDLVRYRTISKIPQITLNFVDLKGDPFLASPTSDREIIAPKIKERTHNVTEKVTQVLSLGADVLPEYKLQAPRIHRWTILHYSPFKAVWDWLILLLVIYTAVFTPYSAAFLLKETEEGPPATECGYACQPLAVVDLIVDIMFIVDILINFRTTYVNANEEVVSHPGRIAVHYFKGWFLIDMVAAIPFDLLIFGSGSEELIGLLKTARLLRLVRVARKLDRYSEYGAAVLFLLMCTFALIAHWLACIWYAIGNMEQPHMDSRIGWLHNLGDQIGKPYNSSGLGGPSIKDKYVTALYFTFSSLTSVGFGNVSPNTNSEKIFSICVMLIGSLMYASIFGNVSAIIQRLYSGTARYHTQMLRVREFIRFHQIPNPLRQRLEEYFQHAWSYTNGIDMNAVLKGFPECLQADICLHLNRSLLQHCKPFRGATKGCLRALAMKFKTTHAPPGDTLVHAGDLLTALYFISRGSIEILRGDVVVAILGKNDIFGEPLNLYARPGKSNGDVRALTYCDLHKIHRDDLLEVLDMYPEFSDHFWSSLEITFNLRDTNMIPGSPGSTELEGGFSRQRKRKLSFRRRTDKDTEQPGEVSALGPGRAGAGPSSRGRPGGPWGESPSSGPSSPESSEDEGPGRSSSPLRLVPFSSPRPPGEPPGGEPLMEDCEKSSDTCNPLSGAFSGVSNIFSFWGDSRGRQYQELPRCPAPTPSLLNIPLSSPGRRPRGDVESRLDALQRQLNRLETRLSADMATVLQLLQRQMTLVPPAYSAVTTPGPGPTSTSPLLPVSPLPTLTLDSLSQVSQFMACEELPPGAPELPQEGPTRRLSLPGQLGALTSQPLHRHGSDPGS

SMILES: N[C@H]1CCN(c2cc3c(cc2F)n2ccnc2c(=O)n3C2CC2)C1
- Ratio (Escherichia coli [1]): 32
- MIC (Klebsiella pneumoniae [2]): 16 µg/mL (≈ 48.9 µM)
- metabolised at 20 min, 5 µM [3]: 11%
- MIC (Pseudomonas aeruginosa [4]): 32 µg/mL (≈ 97.8 µM)
- Ratio (Klebsiella pneumoniae [5]): 8
- MIC (Klebsiella pneumoniae [6]): 64 µg/mL (≈ 196 µM)
- MIC (Staphylococcus aureus [7]): 4 µg/mL (≈ 12.2 µM)
- MIC (Staphylococcus aureus [8]): 16 µg/mL (≈ 48.9 µM)
- MIC (Pseudomonas aeruginosa [9]): < 0.125 µg/mL
- IC50 (Cytochrome P450 3A4 [10]): > 30 µM
- remaining at 4 h, 1 µM [11]: 80 to 120%
- MIC (Escherichia coli [12]): 2 µg/mL (≈ 6.11 µM)
- MIC (Escherichia coli [13]): < 0.125 µg/mL
- Ratio (Staphylococcus aureus [14]): 4
- MIC (Staphylococcus aureus [15]): 16 µg/mL (≈ 48.9 µM)
- Ratio (Staphylococcus aureus [16]): 1
- MIC (Staphylococcus aureus [17]): 4 µg/mL (≈ 12.2 µM)
- Activity (Staphylococcus aureus [18]): Active
- IC50 [19]: > 30 µM
- MIC (Staphylococcus aureus [20]): 8 µg/mL (≈ 24.4 µM)
- Ratio (Escherichia coli [21]): 64
- MIC (Klebsiella pneumoniae [22]): 32 µg/mL (≈ 97.8 µM)
- MIC (Staphylococcus aureus [23]): 8 µg/mL (≈ 24.4 µM)
- IC50 (DNA gyrase): 1.19 µM
- MIC (Escherichia coli [24]): 512 µg/mL (≈ 1560 µM)
- Activity (L5178Y [25]): Toxic
- MIC (Escherichia coli [26]): 2 µg/mL (≈ 6.11 µM)
- Ratio (Staphylococcus aureus [27]): 2
- MIC (Klebsiella pneumoniae [28]): 64 µg/mL (≈ 196 µM)
- solubility thermodynamic [29]: 1130 µg/mL (≈ 3460 µM)
- IC50 (Cytochrome P450 3A4 [30]): > 30 µM
- MIC (Klebsiella pneumoniae [31]): 128 µg/mL (≈ 391 µM)
- Ratio (Klebsiella pneumoniae [32]): 4
- inhibition (Escherichia coli [33]): Active
- Activity (L5178Y [34]): Toxic
- MIC (Klebsiella pneumoniae [35]): 0.5 µg/mL (≈ 1.53 µM)
- MIC (Staphylococcus aureus [36]): 4 µg/mL (≈ 12.2 µM)
- MIC (Acinetobacter baumannii [37]): 4 to 8 µg/mL (≈ 12.2 to 24.4 µM)
- MIC (Escherichia coli [38]): 8 µg/mL (≈ 24.4 µM)
- MIC (Acinetobacter baumannii [39]): > 64 µg/mL
- CC50 at 40 h [40]: > 30 µM
- Ratio (Staphylococcus aureus [41]): 1
- remaining at 4 h, 1 µM [42]: 80 to 120%
- Activity (Staphylococcus aureus [43]): Active
- metabolised at 20 min, 5 µM [44]: 8%
- Papp [45]: 0.4 ×10⁻⁶ cm/s
- Ratio (Staphylococcus aureus [46]): 4
- Ratio (Escherichia coli [47]): 8
- MIC (Escherichia coli [48]): 0.125 µg/mL (≈ 0.382 µM)
- MIC (Escherichia coli [49]): 4 µg/mL (≈ 12.2 µM)
- metabolised at 20 min, 5 µM [50]: 6%
- Ratio (Klebsiella pneumoniae [51]): 4
